According to patent US10335504B2, “Heterocyclic molecules for biomedical imaging and therapeutic applications” (Washington University, priority 2013, dated 2019):
“Also recorded” adds a separate entry of the source. Like-named read-outs stand apart in the source and are kept apart here. Each block holds one compound with its values, some of them ahead of it.

Experiments:
[1] = molecular target: T1, preformed Aβ1-42 fibrils (Homo sapiens, UniProt P05067); assay: Binding assay with preformed Aβ1-42 fibrils/aggregates in PBS (fluorescence)
T1 construct: preformed Aβ1-42 fibrils
T1 sequence (P05067 672-713 limits assumed): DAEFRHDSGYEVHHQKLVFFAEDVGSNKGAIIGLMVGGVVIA
Excerpt: In some embodiments of the present teachings, binding assays to preformed fibrils or AD brain homogenate extracts can be performed using literature procedures (Klunk, W., et al. Uncharged thioflavin-T derivatives bind to amyloid-beta protein with high affinity and readily enter the brain. Life Sci 69, 1471-1484 (2001); Zhen, W., et al. Synthesis and amyloid binding properties of rhenium complexes: preliminary progress towards a reagent for SPECT imaging of Alzheimer's disease brain. J Med Chem 42, 2805-2815 (1999)). Prior to binding assays, the stock solution (2 μM) can be thawed. To aliquots of this stock solution, ^18F-AI-182 (also exemplified for either ^18F-AI-183 or ^18F-AI-187) can be added at various concentrations to a final concentration of 200 nM Aβ fibrils or 200 μL of AD brain extracts (20-25 μg). The aggregate-bound ^18F-AI-182 (or other analogues) can be collected on Whatman GF filters using Brandon M-24R cell harvester, washed, and counted in a γ-counter (Perkin Elmer). Inhibition constants (Ki) can be calculated as described previously (Han, H., Cho, C. & Lansbury, P. J. Technetium complexes for quantification of brain amyloid. J Am Chem Soc 118, 4506-4508 (1996)). Binding assay results can assist in evaluation of target specificity.
Binding assays of F-AI-182 with preformed Aβ1-42 aggregates were performed in PBS. […] Fluorescence was not observed using Aβ aggregates alone in PBS upon excitation at 410 nm (a negative control). […] Comparative analyses can be performed with other compounds such as AV-45, BAYER 94-9172, and AZD4694. An agent can be interacting with either of the two modestly high affinity binding sites (BS1& BS2) or recognizing an entirely new site on Aβ1-42. F-AI-182 can register different complementary binding sites in relation to Aβ-pathophysiology compared to current agents.

[2] = test system: Aβ plaques; assay: Staining of human AD brain tissue sections; type: binding; conditions: person with AD
Method: Staining experiments were performed with human brain tissues. Tissue samples were obtained from the frontal lobe of clinically and neuropathologically well-characterized cases. The neuropathological diagnosis of AD was based on the criteria of the Consortium to Establish a Registry for Alzheimer's Disease (CERAD) (Mirra, S., et al. The Consortium to Establish a Registry for Alzheimer's Disease (CERAD). Part II. Standardization of the neuropathologic assessment of Alzheimer's disease. Neurology 41, 479-486 (1991)) or the National Institute of Aging-Reagan Institute (NIA-RI) (Hyman, B. & Trojanowski, J. Consensus recommendations for the postmortem diagnosis of Alzheimer disease from the National Institute on Aging and the Reagan Institute Working Group on diagnostic criteria for the neuropathological assessment of Alzheimer disease. J Neuropathol Exp Neurol 56, 1095-1097. (1997)). […]
The fluorescent probe (F-AI-183) labels fibrillar amyloid (arrow). The slides were analyzed on a using a Nikon Ti-E PFS inverted microscope equipped with a Nikon 10×0.3 NA Plan APO objective, Prior H117 ProScan flat top linear encoded stage, and Prior Lumen 200PRO illumination system with standard DAPI and FITC filter sets. […] Images were processed and analyzed using the Image J software package (NIH).

[3] = molecular target: T2, Aβ plaques (Homo sapiens, UniProt P05067); assay: Ex vivo staining of mouse brain sections; type: binding; conditions: APPsw+/− mice, 24 months old
T2 construct: from tissue; host or cells: brain of APPsw+/-/PS1 (and APPsw+/-) transgenic mice: sections ex vivo, and live animals for multiphoton imaging
T2 sequence (P05067 672-713 limits assumed): as above
Method: FIG. 2 illustrates ex vivo staining studies were performed on brain sections (50 μm) of an APPsw^+/−/PS1 mouse (24 months old) and a control WT mouse (BL/6; 24 months old) using well-established procedures. Briefly, tissue sections were immunostained with mouse monoclonal antibody and visualized by donkey-anti-mouse HJ3.4 Aβ monoclonal antibody-Alexa 568 as a positive control. […] By comparison, no staining in WT mice was seen either with F-AI-182 or the antibody indicating the targeting specificity of F-AI-182. The slides were analyzed on a Zeiss LSM 5 PASCAL confocal system coupled to a Zeiss Axiovert 200 microscope.
The slides were analyzed using a Nikon Ti-E PFS inverted microscope equipped with a Nikon 10x 0.3 NA Plan APO objective, Prior H117 ProScan flat top linear encoded stage, and Prior Lumen 200PRO illumination system with standard DAPI and FITC filter sets. The images were acquired using a Photometrics CoolSNAP HQ2 digital camera and MetaMorph microscopy automaton, and imaging software. Images were processed and analyzed using the Image J software package (NIH).

[4] = test system: BS1 and BS3 sites; conditions: cited from earlier work
[5] = cited from earlier work
[6] = cited from earlier work; remark: listed apart in the source
[7] = Stability in human serum; type: in vitro ADME
Excerpt: In various configurations, identified heterocyclic molecules can be assessed for metabolic stability for use in biomedical imaging applications both in vitro and in vivo using established procedures (e.g., Mathis, C., et al. Synthesis and evaluation of ^11C-labeled 6-substituted 2-arylbenzothiazoles as amyloid imaging agents. J. Med. Chem. 46, 2740-2754 (2003); Sharma, V. Radiopharmaceuticals for assessment of multidrug resistance P-glycoprotein-mediated transport activity. Bioconjug. Chem. 15, 1464-1474 (2004)). In some embodiments, ^18F-AI-182, another agent, or a combination thereof can be incubated in either serum or human serum albumin at time points corresponding to uptake in vivo (5 min to 2 h) and filtered through filters (30 kDa). Free and bound radiotracer can be calculated using previously describe methods (Bartholoma, M. D., et al. Effect of the prosthetic group on the pharmacologic properties of ^18F-labeled rhodamine B, a potential myocardial perfusion agent for positron emission tomography (PET). J Med Chem 55, 11004-11012 (2012)), and can be analyzed by radio-TLC scanner and radio-HPLC. […] Brain tissues, liver, and kidney can be removed (liver and kidney can be used to evaluate their metabolic stability in more stringent in vivo environments), sonicated, extracted and analyzed through radio-TLC and -HPLC.

[8] = Biodistribution study in normal FVB mice; type: in vivo, mouse; conditions: for tissue uptake at 5 min / tissue uptake at 120 min: mouse, intravenous
Excerpt: In various configurations, agents can be evaluated in part by exploring the tissue distribution and kinetics of ^18F-AI-182 or other agents in normal mice and transgenic mice. Because these heterocyclic molecules can be labeled with ^18F using the methods described herein, biodistribution in normal mice can be determined. In such investigations, BL/6 (control mice; Taconic) or APPsw^+/−/PS1 (transgenic, Taconic) mice can be anesthetized by isoflurane inhalation and injected with ^18F-AI-182 or other agents (20 μCi in 50-100 μl saline) via bolus injection through a tail vein. Animals can be sacrificed by cervical dislocation at 2, 30, 60, and 120 min post-injection (n=2-4) and data can be quantified into % ID/g as described (Sivapackiam, J., et al. Synthesis, molecular structure, and validation of metalloprobes for assessment of MDR1 P-glycoprotein-mediated functional transport. Dalton Trans 39, 5842-5850 (2010)). The brains can be removed and dissected into cerebellums and remaining whole brain fractions prior to weighing and counting to evaluate regional differences in the location of radiotracer in comparison with transgenic mice.
For in vivo imaging of Aβ plaques, the basic pharmacokinetic model in an unaffected normal brain involves high initial penetration of the agent, followed by rapid clearance due to lack of a binding target. However, in AD brains, high initial penetration can be followed by regional retention as the agent binds to Aβ thus leading to differential kinetics. To accomplish this objective, biodistribution studies of ^18F-AI-182 were performed in normal FVB mice for assessment of signal to noise ratios and clearance profiles. Brain uptake of ^18F-AI-182 was analyzed in terms of percent injected dose per gram of the brain tissue (% ID/g). […] This initial brain uptake value (5 min) in normal mice is approximately 15-fold high compared with our Aβ-targeted ^99mTc-Peptides (Harpstrite, S. E., Prior, J., Binz, K., Piwnica-Worms, D. & Sharma, V. ^99mTc-Peptide conjugates for imaging β-amyloid in the brain. ACS Med Chem Lett (2013) under review). […] Net brain uptake of ^18F-AI-182 is 1.2-fold higher than that of ^18F-AV-45. The initial data point for ^18F-AI-182 is at 5 min compared with 2 min for ^18F-AV-45.

[9] = cited from earlier work; for brain uptake: normal mice
[10] = Literature biodistribution in normal mice (Choi et al. 2009); type: in vivo, mouse

Structure (SMILES): CN(C)c1ccc(/C=C/c2nc3cc(OCCF)ccc3[se]2)cn1 [F-AI-183]
Kd [1]: 17 nM
detection of Aβ plaques in human AD brain cross-sections of frontal lobe [2]: detection of compact Aβ plaques; also recorded: detected compact Aβ plaques
staining of brain tissue sections [3]: labeling of Aβ plaques

Structure (SMILES): CN(C)c1ncc(/C=C/c2nc3cc(OCCF)ccc3[se]2)cn1 [F-AI-187]
Kd [1]: 1.58 nM

Structure (SMILES): CC(=C(C#N)C#N)c1ccc2cc(N(C)CC[18F])ccc2c1 [FDDNP, 2-(1-(6-[(2-[18F]fluoroethyl)(methyl)amino]-2-naphthyl)ethylidene)malononitrile]
affinity for BS1 and BS3 sites [4]: low affinity

Structure (SMILES): [11CH3]Nc1ccc(/C=C/c2ccc(O)cc2)cc1 [SB-13, [^11C]4-N-methylamino-4′-hydroxystilbene]
biological half-life in serum [5]: low

Structure (SMILES): [11CH3]Nc1ccc(-c2nc3ccc(O)cc3s2)cc1 [^11C-PIB, 2-[p-(Methylamino)phenyl]-3-thia-1-aza-5-indanol]
metabolism in vivo [6]: facile metabolism

metabolism in human serum ([7]; human serum): non-metabolized
time until which non-metabolized in human serum ([7]; investigated highest time-point): about 30 min
tissue uptake at 5 min ([8]; FVB, kidney, normal mice, 5 min, read-out: kidney uptake): 6.76 ± 1.57 %ID/g
tissue uptake at 120 min ([8]; FVB, kidney, normal mice, 120 min, read-out: kidney uptake): 1.57 ± 0.08 %ID/g
tissue uptake at 5 min ([8]; FVB, liver, normal mice, 5 min, read-out: liver uptake): 16.3 ± 1.41 %ID/g
tissue uptake at 120 min ([8]; FVB, liver, normal mice, 120 min, read-out: liver uptake): 2.71 ± 0.21 %ID/g
tissue uptake at 5 min ([8]; brain, normal FVB mice, 5 min post tail-vein injection, read-out: brain uptake): 7.28 ± 0.46 %ID/g
tissue uptake at 120 min ([8]; brain, normal FVB mice, 120 min post tail-vein injection, read-out: brain uptake): 1.54 ± 0.06 %ID/g
5 min/120 min brain clearance ratio ([8]; normal mice): 4.73
initial brain uptake (5 min) compared with Aβ-targeted 99mTc-Peptides ([8]; normal mice): approximately 15 fold
net brain uptake relative to 18F-AV-45 ([8]; normal mice): 1.2 fold
blood clearance faster than 18F-AV-45 ([8]; normal mice, 5 min to 120 min): 25%
Structure (SMILES): CN(C)c1ccc(/C=C/c2nc3ccc(OCC[18F])cc3s2)cn1 [^18F-AI-182]
penetration of brain / blood-brain barrier ([8]; mice): facile penetration of the blood-brain barrier (BBB)

2 min/120 min brain clearance ratio [10]: 4.07
Structure (SMILES): CNc1ccc(/C=C/c2ccc(OCCOCCOCC[18F])nc2)cc1 [^18F-AV-45]
biological half-life in serum [5]: low
metabolism in vivo [6]: facile metabolism
kidney uptake ([9]; 2 min): 14.19±2.34 % ID/g
kidney uptake ([9]; 120 min): 2.19±0.36 % ID/g
liver uptake ([9]; 120 min): 4.96±0.90 % ID/g
brain uptake ([9]; 2 min post-injection): 7.33±1.54 % ID/g
brain uptake ([9]; 120 min post-injection): 1.80±0.07 % ID/g
